Assay results from patent US20120122860A1, “SOLID FORMS OF SULFONAMIDES AND AMINO ACIDS” (Plexxikon, Inc., priority 2009, published 2012).

How the values were obtained:
Fms = Fms (Homo sapiens, UniProt P07333); assay: Kinase activity assay, Fms
Kdr = Kdr (Homo sapiens, UniProt P35968); assay: Kinase activity assay, Kdr
Kit = Kit (Homo sapiens, UniProt P10721); assay: Kinase activity assay, Kit
B-Raf = B-Raf (Homo sapiens, UniProt P15056); assay: Kinase activity assay, B-Raf; type: biochemical; conditions: read-out: activity toward kinase B-Raf, IC50
Chain of B-Raf (P15056 whole entry): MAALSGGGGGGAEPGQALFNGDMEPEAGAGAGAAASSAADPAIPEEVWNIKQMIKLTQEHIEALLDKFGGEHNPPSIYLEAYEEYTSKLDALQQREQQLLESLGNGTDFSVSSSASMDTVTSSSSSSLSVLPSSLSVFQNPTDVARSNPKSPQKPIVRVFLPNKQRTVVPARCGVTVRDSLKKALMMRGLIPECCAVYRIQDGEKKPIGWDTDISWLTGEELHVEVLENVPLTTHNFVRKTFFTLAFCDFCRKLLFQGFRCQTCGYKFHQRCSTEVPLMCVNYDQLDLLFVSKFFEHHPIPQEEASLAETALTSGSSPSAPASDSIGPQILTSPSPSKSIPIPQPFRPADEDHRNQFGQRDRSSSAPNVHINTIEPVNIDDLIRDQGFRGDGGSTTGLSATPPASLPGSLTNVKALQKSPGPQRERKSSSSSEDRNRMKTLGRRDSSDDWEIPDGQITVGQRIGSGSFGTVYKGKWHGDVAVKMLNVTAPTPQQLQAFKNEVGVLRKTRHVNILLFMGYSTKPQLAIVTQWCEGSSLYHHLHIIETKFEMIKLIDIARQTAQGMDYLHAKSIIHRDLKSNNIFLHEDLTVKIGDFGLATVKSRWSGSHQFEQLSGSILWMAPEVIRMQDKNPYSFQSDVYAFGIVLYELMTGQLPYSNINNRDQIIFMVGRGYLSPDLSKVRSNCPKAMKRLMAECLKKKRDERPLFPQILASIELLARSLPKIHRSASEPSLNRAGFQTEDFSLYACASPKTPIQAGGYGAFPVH

B-Raf V600E = B-Raf V600E (Homo sapiens, UniProt P15056, V600E); assay: Kinase activity assay, B-Raf V600E; type: biochemical; conditions: read-out: activity toward kinase B-Raf V600E, IC50
Chain of B-Raf V600E (P15056 whole entry V600E): as the sequence (P15056 whole entry) above, with V600E counted along it

Src = Src (Homo sapiens, UniProt P12931); assay: Kinase activity assay, Src
Chain of Src (P12931 whole entry): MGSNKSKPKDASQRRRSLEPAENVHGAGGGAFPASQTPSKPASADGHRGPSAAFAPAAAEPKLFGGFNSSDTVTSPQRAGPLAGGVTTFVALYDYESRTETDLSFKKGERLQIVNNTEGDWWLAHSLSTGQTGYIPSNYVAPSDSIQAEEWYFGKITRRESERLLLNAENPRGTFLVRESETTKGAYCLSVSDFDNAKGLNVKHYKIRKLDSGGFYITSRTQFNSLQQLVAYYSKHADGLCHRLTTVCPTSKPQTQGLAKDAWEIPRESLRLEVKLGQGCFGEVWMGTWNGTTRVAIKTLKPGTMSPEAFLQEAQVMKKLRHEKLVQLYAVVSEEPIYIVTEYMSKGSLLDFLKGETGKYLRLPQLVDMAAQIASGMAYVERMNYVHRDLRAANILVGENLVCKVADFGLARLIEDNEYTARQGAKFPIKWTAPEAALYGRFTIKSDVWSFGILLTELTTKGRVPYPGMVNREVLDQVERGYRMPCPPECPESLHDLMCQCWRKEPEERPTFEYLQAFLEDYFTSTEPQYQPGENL

C-Raf = C-Raf (Homo sapiens, UniProt P04049); assay: Kinase activity assay, C-Raf
Chain of C-Raf (P04049 whole entry): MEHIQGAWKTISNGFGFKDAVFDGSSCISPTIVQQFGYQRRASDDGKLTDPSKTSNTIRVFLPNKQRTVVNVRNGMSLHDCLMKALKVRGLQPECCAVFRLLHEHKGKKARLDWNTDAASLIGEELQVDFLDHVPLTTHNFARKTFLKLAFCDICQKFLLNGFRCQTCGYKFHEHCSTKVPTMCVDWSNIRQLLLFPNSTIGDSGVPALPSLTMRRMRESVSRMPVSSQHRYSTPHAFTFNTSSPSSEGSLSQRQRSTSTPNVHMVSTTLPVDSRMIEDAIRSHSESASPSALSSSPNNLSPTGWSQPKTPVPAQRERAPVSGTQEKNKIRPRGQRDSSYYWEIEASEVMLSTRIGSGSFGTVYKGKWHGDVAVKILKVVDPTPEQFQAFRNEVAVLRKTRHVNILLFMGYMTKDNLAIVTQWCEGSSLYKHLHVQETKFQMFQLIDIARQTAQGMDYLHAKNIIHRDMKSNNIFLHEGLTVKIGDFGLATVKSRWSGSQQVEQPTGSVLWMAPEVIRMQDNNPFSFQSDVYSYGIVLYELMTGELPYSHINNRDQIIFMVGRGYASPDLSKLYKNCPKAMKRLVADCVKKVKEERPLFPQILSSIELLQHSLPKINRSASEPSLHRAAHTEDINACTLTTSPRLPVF

Chain of Kdr (P35968 20-1356): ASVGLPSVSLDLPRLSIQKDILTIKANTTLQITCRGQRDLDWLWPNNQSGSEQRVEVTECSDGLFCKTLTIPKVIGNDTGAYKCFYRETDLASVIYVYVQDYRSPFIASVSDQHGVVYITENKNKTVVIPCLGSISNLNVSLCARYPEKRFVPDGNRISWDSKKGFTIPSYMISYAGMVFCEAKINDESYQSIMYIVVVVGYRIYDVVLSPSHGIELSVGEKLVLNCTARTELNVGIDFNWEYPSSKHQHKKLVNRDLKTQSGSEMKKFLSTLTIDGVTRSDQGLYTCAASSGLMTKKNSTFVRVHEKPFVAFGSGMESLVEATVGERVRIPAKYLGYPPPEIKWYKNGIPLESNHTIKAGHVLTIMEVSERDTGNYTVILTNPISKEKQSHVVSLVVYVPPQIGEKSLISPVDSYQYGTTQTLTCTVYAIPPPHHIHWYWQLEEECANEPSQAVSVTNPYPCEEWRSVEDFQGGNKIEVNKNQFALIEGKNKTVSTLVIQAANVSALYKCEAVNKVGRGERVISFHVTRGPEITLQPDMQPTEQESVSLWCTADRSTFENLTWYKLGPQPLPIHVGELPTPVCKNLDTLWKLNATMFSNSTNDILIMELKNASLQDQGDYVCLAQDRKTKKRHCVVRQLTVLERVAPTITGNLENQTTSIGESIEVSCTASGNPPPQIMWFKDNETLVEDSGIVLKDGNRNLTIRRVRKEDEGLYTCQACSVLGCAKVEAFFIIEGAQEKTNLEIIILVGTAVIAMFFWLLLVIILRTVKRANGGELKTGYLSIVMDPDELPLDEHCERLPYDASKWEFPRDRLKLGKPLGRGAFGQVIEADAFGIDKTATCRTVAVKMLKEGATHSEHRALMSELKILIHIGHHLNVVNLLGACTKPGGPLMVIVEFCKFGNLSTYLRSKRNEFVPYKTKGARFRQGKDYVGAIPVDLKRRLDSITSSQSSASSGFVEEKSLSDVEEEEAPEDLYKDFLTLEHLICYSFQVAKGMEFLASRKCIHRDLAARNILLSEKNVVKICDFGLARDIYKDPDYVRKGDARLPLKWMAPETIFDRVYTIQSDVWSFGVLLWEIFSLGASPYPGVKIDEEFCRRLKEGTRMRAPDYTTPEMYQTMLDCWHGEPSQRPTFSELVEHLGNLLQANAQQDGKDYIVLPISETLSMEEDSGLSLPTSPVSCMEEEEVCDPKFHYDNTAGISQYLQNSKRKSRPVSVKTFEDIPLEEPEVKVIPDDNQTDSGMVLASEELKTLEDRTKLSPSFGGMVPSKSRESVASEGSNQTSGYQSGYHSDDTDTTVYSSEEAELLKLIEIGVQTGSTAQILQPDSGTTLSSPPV
Chain of Kit (P10721 26-976): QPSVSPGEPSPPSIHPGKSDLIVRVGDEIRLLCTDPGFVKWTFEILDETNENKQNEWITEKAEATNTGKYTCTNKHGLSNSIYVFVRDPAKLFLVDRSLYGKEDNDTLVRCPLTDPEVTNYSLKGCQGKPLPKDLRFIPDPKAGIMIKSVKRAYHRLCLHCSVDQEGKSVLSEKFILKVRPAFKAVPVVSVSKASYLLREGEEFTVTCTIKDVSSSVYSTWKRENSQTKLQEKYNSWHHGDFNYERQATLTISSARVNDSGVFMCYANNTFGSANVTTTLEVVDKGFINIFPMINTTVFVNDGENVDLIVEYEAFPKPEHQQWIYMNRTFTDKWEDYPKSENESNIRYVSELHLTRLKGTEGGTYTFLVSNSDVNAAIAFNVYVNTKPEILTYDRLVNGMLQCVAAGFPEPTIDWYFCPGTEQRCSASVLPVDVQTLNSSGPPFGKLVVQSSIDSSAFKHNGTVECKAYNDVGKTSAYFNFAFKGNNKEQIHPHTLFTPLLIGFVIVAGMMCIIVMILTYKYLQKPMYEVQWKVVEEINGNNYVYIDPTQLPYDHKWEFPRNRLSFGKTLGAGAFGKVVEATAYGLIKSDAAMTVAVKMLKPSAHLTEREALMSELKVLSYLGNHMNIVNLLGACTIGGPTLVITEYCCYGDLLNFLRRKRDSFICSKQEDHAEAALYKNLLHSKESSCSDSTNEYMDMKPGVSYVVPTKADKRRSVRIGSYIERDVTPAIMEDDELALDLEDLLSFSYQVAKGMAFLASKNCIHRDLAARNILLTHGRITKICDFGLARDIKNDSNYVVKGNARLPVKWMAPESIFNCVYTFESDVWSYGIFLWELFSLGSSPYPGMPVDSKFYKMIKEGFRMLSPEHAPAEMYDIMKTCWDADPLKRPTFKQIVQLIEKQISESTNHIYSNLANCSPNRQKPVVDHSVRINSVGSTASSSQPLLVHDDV

IC50 (Fms) [µM] | IC50 (Kdr) [µM] | IC50 (Kit) [µM] | IC50 (B-Raf) [µM] | IC50 (B-Raf V600E) [µM] | IC50 (Src) [µM] | IC50 (C-Raf) [µM] | SMILES
≤ 10 | ≤ 10 | ≤ 10 |  |  |  |  | O=C(c1cccc(NS(=O)(=O)c2cccc(C(F)(F)F)c2)c1)c1c[nH]c2ncc(Cl)cc12 [P-2122, N-[3-(5-Chloro-1H-pyrrolo[2,3-b]pyridine-3-carbonyl)-phenyl]-3-trifluoromethyl-benzenesulfonamide]
≤ 10 | ≤ 10 | ≤ 10 |  |  |  |  | O=C(c1cccc(NS(=O)(=O)c2ccc(F)cc2)c1)c1c[nH]c2ncc(Cl)cc12 [P-2121, N-[3-(5-Chloro-1H-pyrrolo[2,3-b]pyridine-3-carbonyl)-phenyl]-4-fluoro-benzenesulfonamide]
≤ 10 | ≤ 10 | ≤ 10 |  |  |  |  | O=C(c1cc(NS(=O)(=O)c2ccc(F)cc2)ccc1F)c1c[nH]c2ncc(Cl)cc12 [P-2107, N-[3-(5-Chloro-1H-pyrrolo[2,3-b]pyridine-3-carbonyl)-4-fluoro-phenyl]-4-fluoro-benzenesulfonamide]
 | ≤ 10 | ≤ 10 | ≤ 10 | ≤ 10 | ≤ 10 | ≤ 10 | COc1ccnc2[nH]cc(C(=O)c3c(F)ccc(NS(=O)(=O)c4ccc(F)cc4F)c3F)c12 [P-2032, N-[2,4-Difluoro-3-(4-methoxy-1H-pyrrolo[2,3-b]pyridine-3-carbonyl)-phenyl]-2,4-difluoro-benzenesulfonamide]
 |  | ≤ 10 |  |  | ≤ 10 |  | O=C(c1c(F)ccc(NS(=O)(=O)CCC(F)(F)F)c1F)c1c[nH]c2ncc(-c3ccc(Cl)cc3)cc12 [P-2325, 3,3,3-Trifluoro-propane-1-sulfonic acid {3-[5-(4-chloro-phenyl)-1H-pyrrolo[2,3-b]pyridine-3-carbonyl]-2,4-difluoro-phenyl}-amide]
 | ≤ 10 | ≤ 10 | ≤ 10 | ≤ 10 | ≤ 10 | ≤ 10 | N#Cc1cnc2[nH]cc(C(=O)c3cccc(NS(=O)(=O)c4ccc(F)cc4F)c3F)c2c1 [P-2055, N-[3-(5-Cyano-1H-pyrrolo[2,3-b]pyridine-3-carbonyl)-2-fluoro-phenyl]-2,4-difluoro-benzenesulfonamide]
≤ 10 | ≤ 10 |  | ≤ 10 | ≤ 10 |  | ≤ 10 | O=C(c1cccc(NS(=O)(=O)N2CCCC2)c1F)c1c[nH]c2ncc(-c3ccc(Cl)cc3)cc12 [P-2425, Pyrrolidine-1-sulfonic acid {3-[5-(4-chloro-phenyl)-1H-pyrrolo[2,3-b]pyridine-3-carbonyl]-2-fluoro-phenyl}-amide]
 | ≤ 10 | ≤ 10 |  | ≤ 10 | ≤ 10 | ≤ 10 | CCCC(C)S(=O)(=O)Nc1ccc(F)c(C(=O)c2c[nH]c3ncc(Cl)cc23)c1F (stereo not shown) [P-2311, Pentane-2-sulfonic acid [3-(5-chloro-1H-pyrrolo[2,3-b]pyridine-3-carbonyl)-2,4-difluoro-phenyl]-amide]
≤ 10 | ≤ 10 |  |  | ≤ 10 |  |  | CN(C)S(=O)(=O)Nc1cccc(C(=O)c2c[nH]c3ncc(-c4ccc(Cl)cc4)cc23)c1F [P-2423, N,N-dimethylamino-sulfonic acid {3-[5-(4-chloro-phenyl)-1H-pyrrolo[2,3-b]pyridine-3-carbonyl]-2-fluoro-phenyl}-amide]
 | ≤ 10 | ≤ 10 | ≤ 10 | ≤ 10 | ≤ 10 |  | CCCS(=O)(=O)Nc1ccc(F)c(C(=O)c2c[nH]c3ncc(-c4cc(C)nn4C)cc23)c1F [P-2195, Propane-1-sulfonic acid {3-[5-(2,5-dimethyl-2H-pyrazol-3-yl)-1H-pyrrolo[2,3-b]pyridine-3-carbonyl]-2,4-difluoro-phenyl}-amide]
≤ 10 | ≤ 10 |  |  |  |  |  | O=C(c1cc(NS(=O)(=O)C2CC2)ccc1F)c1c[nH]c2ncccc12 [P-2439, Cyclopropanesulfonic acid [4-fluoro-3-(1H-pyrrolo[2,3-b]pyridine-3-carbonyl)-phenyl]-amide]
